Measurements taken from ChEMBL document CHEMBL4433260, “Oxadiazole scaffolds in anti-tuberculosis drug discovery” (Bioorg Med Chem Lett, 2019).
≈ marks a conversion by molar mass, not a printed value.

How the values were obtained:
[1] = tested on: Mycobacterium tuberculosis; assay: Antimycobacterial activity against replicating Mycobacterium tuberculosis H37Rv at 8 ug/ml relative to control; format: functional
[2] = tested on: Mycobacterium tuberculosis; assay: Antimycobacterial activity against non-replicating Mycobacterium tuberculosis H37Rv at 1.6 ug/ml relative to control; format: functional
[3] = tested on: Mycolicibacterium smegmatis; assay: Antimycobacterial activity against Mycobacterium smegmatis str. MC2 155; format: functional
[4] = tested on: Mycobacterium tuberculosis; assay: Antimycobacterial activity against Mycobacterium tuberculosis Erdman; format: functional
[5] = tested on: Mycobacterium tuberculosis; assay: Antimycobacterial activity against Mycobacterium tuberculosis H37Rv measured after 28 days by Lowensteine-Jensen method; format: functional; conditions: 672 h
[6] = tested on: Mycobacterium tuberculosis; assay: Antimycobacterial activity against Mycobacterium tuberculosis H37Rv incubated for 5 days by alamar blue assay; format: functional; conditions: 120 h
[7] = tested on: Mycobacterium tuberculosis; assay: Antimycobacterial activity against Mycobacterium tuberculosis H37Rv at 250 ug/ml measured after 4 weeks by Lowensteine-Jensen method relative to control; format: functional; conditions: 672 h
[8] = tested on: Mycobacterium tuberculosis; assay: Antimycobacterial activity against Mycobacterium tuberculosis H37Rv at 100 ug/ml by alamar blue assay relative to control; format: functional
[9] = tested on: Mycobacterium tuberculosis; assay: Antitubercular activity against dormant stage of Mycobacterium tuberculosis H37Ra; format: functional
[10] = tested on: Mycobacterium tuberculosis; assay: Antimycobacterial activity against Mycobacterium tuberculosis H37Rv; format: functional
[11] = tested on: Mycobacterium tuberculosis; assay: Antimycobacterial activity against Mycobacterium tuberculosis H37Rv by alamar blue assay; format: functional
[12] = Inhibition of Mycobacterium tuberculosis H37Rv shikimate kinase using shikimic acid as substrate preincubated for 15 mins followed by substrate addition in presence of ATP by LC/MS analysis

Structure (SMILES): O=C(Nc1nnc(-c2ccc(F)cc2)o1)c1ccc(Cl)cc1
- inhibition at 8 µg/mL [1]: > 90%
- inhibition at 1.6 µg/mL [2]: > 90%
- MIC [3]: 0.4 µg/mL (≈ 1.26 µM)
- MIC [4]: 1.6 µg/mL (≈ 5.04 µM)

Structure (SMILES): Clc1nc2ccccc2cc1CN(c1ccccc1)c1nnc(-c2ccncc2)o1
- MIC [5]: 60 to 200 µM (≈ 24.8 to 82.8 µg/mL)

Structure (SMILES): Cn1c(-c2cccc(Cl)c2F)nc2cc(-c3nc(-c4ccc(Cl)cc4)no3)ccc21
- MIC [6]: 1.6 µg/mL (≈ 3.64 µM)

Structure (SMILES): Cc1nn(-c2ccccc2)c(Oc2ccc(F)cc2)c1-c1nnc(-c2ccc(Br)cc2)o1
- inhibition at 250 µg/mL [7]: > 90%

Structure (SMILES): Cn1c(-c2cccc(Cl)c2Cl)nc2cc(-c3nc(-c4ccccc4Cl)no3)ccc21
- MIC [6]: 1.6 µg/mL (≈ 3.51 µM)

Structure (SMILES): COc1ccc(-c2nnc(-c3cc4cc(C)ccc4n4nnnc34)o2)cc1
- inhibition at 100 µg/mL [8]: > 90%

Structure (SMILES): CC1(C)Cc2c(C#CCO)c(NC(=O)C(C)(C)C)cc(-c3nnc(-c4ccc(C(F)(F)F)cc4)o3)c2O1
- IC90 [9]: 5.7 µM

Structure (SMILES): Cc1ccc(-c2nnc(-c3c(C)nn(-c4ccccc4)c3Oc3ccc(F)cc3)o2)cc1
- inhibition at 250 µg/mL [7]: > 90%

Structure (SMILES): Cc1ccc(-c2nnc(-c3c(C)nn(-c4ccccc4)c3Oc3cccc(F)c3)o2)cc1
- inhibition at 250 µg/mL [7]: > 90%

Structure (SMILES): Cc1nn(-c2ccccc2)c(Oc2cccc(C(F)(F)F)c2)c1-c1nnc(-c2ccc(Br)cc2)o1
- inhibition at 250 µg/mL [7]: > 90%

Structure (SMILES): CO[C@H]1O[C@H](Cc2nnc(C)o2)[C@@H](OCc2ccccc2)[C@H](OCc2ccccc2)[C@H]1OCc1ccccc1
- MIC [10]: 60 µM

Structure (SMILES): Cc1ccc2c(c1)cc(-c1nnc(-c3ccncc3)o1)c1nnnn12
- inhibition at 100 µg/mL [8]: > 90%

Structure (SMILES): Clc1ccc(-c2nnc(/N=C/c3ccco3)o2)cc1
- MIC [11]: 3.12 µg/mL (≈ 11.4 µM)

Structure (SMILES): Clc1ccc2nc(Cl)c(CN(c3ccccc3)c3nnc(-c4ccncc4)o3)cc2c1
- MIC [5]: 60 to 200 µM (≈ 26.9 to 89.7 µg/mL)

Structure (SMILES): Cn1c(-c2cccc(Cl)c2F)nc2cc(-c3nc(Cc4cccc(Cl)c4)no3)ccc21
- MIC [6]: 1.6 µg/mL (≈ 3.53 µM)

Structure (SMILES): O=C(Nc1nnc(-c2ccccc2Cl)o1)c1cccc(Oc2ccccc2)c1
- MIC [10]: < 1 µg/mL
- IC50 [12]: 3.43 µM

Structure (SMILES): Cc1ccc2nc(Cl)c(CN(c3ccccc3)c3nnc(-c4cccnc4)o3)cc2c1
- MIC [5]: 60 to 200 µM (≈ 25.7 to 85.6 µg/mL)

Structure (SMILES): Cn1c(-c2cccc(Cl)c2Cl)nc2cc(-c3nc(-c4ccc(Cl)cc4)no3)ccc21
- MIC [6]: 1.6 µg/mL (≈ 3.51 µM)

Structure (SMILES): O=C(/C=C/c1ccccc1)Nc1nnc(C2CCCc3ccccc32)o1 (stereo not given)
- MIC [10]: < 1 µg/mL
- IC50 [12]: 3.79 µM

Structure (SMILES): Clc1ccc2nc(Cl)c(CN(c3ccccc3)c3nnc(-c4cccnc4)o3)cc2c1
- MIC [5]: 60 to 200 µM (≈ 26.9 to 89.7 µg/mL)
